Experimental data reported in US10239863B2, “Factor XIa inhibitors” (Merck Sharp & Dohme Corp., priority 2013, dated 2019).

What follows are molecules tested against T1, purified human Factor XIa (Homo sapiens, UniProt P03951) (assay: Factor XIa Assay (hydrolysis of fluorogenic substrate Z-Gly-Pro-Arg-AFC)). Conditions: purified human Factor XIa 40 pM; Z-Gly-Pro-Arg-AFC 100 μM; 50 mM HEPES pH 7.4; read-out: Factor XIa Inhibition (IC50 (nM)).
T1 construct: Determinations were made using purified human Factor XIa; purchased Sekisui Diagnostics
T1 sequence (P03951 388-625 limits assumed): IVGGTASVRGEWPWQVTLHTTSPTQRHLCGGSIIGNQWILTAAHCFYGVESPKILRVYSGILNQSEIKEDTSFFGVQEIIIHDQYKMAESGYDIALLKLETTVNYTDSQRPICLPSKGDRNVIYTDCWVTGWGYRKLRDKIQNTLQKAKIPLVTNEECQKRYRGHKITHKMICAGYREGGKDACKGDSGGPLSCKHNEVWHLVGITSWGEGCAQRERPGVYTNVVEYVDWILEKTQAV
T1 sequence (P03951 19-387 partner limits assumed): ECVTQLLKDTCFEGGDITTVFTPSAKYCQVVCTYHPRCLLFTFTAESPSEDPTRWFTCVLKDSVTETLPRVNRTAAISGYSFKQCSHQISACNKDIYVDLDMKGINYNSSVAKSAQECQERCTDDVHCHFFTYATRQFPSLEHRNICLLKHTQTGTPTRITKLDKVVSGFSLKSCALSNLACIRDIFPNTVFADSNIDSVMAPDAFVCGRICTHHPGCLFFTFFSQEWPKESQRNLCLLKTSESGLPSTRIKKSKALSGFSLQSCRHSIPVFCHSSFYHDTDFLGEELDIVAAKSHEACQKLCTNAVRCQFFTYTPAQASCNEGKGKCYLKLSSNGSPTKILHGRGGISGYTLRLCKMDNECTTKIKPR
Type: biochemical
Experimental: The effectiveness of compounds of the present invention as inhibitors of Coagulation Factor XIa can be determined using a relevant purified serine protease, and an appropriate synthetic substrate. The rate of hydrolysis of the chromogenic or fluorogenic substrate by the relevant serine protease was measured both in the absence and presence of compounds of the present invention. Assays were conducted at room temperature or at 37° C. […] A decrease in the rate of fluorescence change in the presence of inhibitor is indicative of enzyme inhibition. Such methods are known to one skilled in the art. […]
Factor XIa determinations were made in 50 mM HEPES buffer at pH 7.4 containing 150 mM NaCl, 5 mM CaCl2, and 0.1% PEG 8000 (polyethylene glycol; JT Baker or Fisher Scientific). Determinations were made using purified human Factor XIa at a final concentration of 40 pM (Sekisui Diagnostics) and the synthetic substrate, Z-Gly-Pro-Arg-AFC, TFA salt (Sigma #C0980) at a concentration of 100 μM.
Times required to achieve equilibration between enzyme and inhibitor were determined in control experiments. Initial velocities of product formation in the absence (Vo) or presence of inhibitor (Vi) were measured. Assuming competitive inhibition, and that unity is negligible compared Km/[S], [I]/e, and [I]/e (where [S], [I], and e respectively represent the total concentrations, of substrate, inhibitor and enzyme), the equilibrium constant (Ki) for dissociation of the inhibitor from the enzyme can be obtained from the dependence of Vo/Vi on [I] shown in the following equation.

SMILES	IC50
COC(=O)Nc1ccc(-c2cnc(C3C(c4ccc(F)cc4)CC(N4CCC(N)CC4)CN3C(=O)/C=C/c3c(C(F)(F)F)ccc(Cl)c3F)[nH]2)cc1 (stereo not shown) [Example 20, methyl (4-{2-[4-amino-1′-{(2E)-3-[3-chloro-2-fluoro-6-(trifluoromethyl)phenyl]prop-2-enoyl}-5′-(4-fluorophenyl)-1,3′-bipiperidin-6′-yl]-1H-imidazol-5-yl}phenyl)carbamate]	128 nM
COC(=O)Nc1ccc(-c2c[nH]c(C3C(c4ccc(F)cc4)CC(N4CCC(N)CC4)CN3C(=O)/C=C/c3c(F)ccc(Cl)c3F)n2)cc1 (stereo not shown) [Example 21, methyl [4-(2-{4-amino-1′-[(2E)-3-(3-chloro-2,6-difluorophenyl)prop-2-enoyl]-5′-(4-fluorophenyl)-1,3′-bipiperidin-6′-yl}-1H-imidazol-4-yl)phenyl]carbamate]	407 nM
COC(=O)Nc1ccc(-c2c[nH]c([C@@H]3[C@H](C4CC4)C[C@H](N4CCC(N)CC4)CN3C(=O)/C=C/c3cc(Cl)ccc3-n3cnnn3)n2)cc1 [Example 22, methyl (4-{2-[(3′S,5′S,6′S)-4-amino-1′-{(2E)-3-[5-chloro-2-(1H-tetrazol-1-yl)phenyl]prop-2-enoyl}-5′-cyclopropyl-1,3′-bipiperidin-6′-yl]-1H-imidazol-4-yl}phenyl)carbamate]	671 nM
C[C@@H]1C[C@H](C2CCNCC2)CN(C(=O)/C=C/c2cc(Cl)ccc2-n2cnnn2)[C@@H]1C(=O)Nc1ccc(C(=O)O)cc1 [Example 24, 4-((3R,5R,6S)-1-((E)-3-(5-chloro-2-(1H-tetrazol-1-yl)phenyl)acryloyl)-5-methyl-[3,4′-bipiperidine]-6-carboxamido)benzoic acid]	579 nM
C[C@@H]1C[C@H](C2CCNCC2)CN(C(=O)c2ccc(CN)c(C3CC3)c2)[C@@H]1C(=O)Nc1ccc(C(=O)O)cc1 [Example 25, 4-((3R,5R,6S)-1-(4-(aminomethyl)-3-cyclopropylbenzoyl)-5-methy-1-[3,4′-bipiperidine]-6-carboxamido) benzoic acid]	519 nM
COC(=O)Nc1ccc(-c2c[nH]c(C3C(c4ccc(F)cc4)CC(C4CCNCC4)CN3C(=O)/C=C/c3cc(Cl)ccc3-n3cnnn3)n2)cc1 (stereo not shown) [Example 27, methyl (4-{2-[1-{(2E)-3-[5-chloro-2-(1H-tetrazol-1-yl)phenyl]prop-2-enoyl}-5-(4-fluorophenyl)-3,4′-bipiperidin-6-yl]-1H-imidazol-4-yl}phenyl)car-bamate]	710 nM

Next, values leading:

IC50	SMILES
81.1 nM	O=C(Nc1ccc2[nH]ncc2c1)[C@@H]1[C@H](c2ccc(F)cc2)C[C@H](N2CCOCC2)CN1C(=O)/C=C/c1cc(Cl)ccc1-n1cnnn1 [Example 29, (2S,3S,5S)-1′-{(2E)-3-[5-Chloro-2-(1H-tetrazol-1-yl)phenyl]prop-2-enoyl}-3-(4-fluorophenyl)-N-1H-indazol-5-yl-5-morpholin-4-ylpiperidine-2-carboxamide]
767 nM	O=C(Nc1ccc2[nH]ncc2c1)[C@H]1[C@@H](c2ccc(F)cc2)C[C@@H](N2CCNCC2)CN1C(=O)/C=C/c1cc(Cl)ccc1-n1cnnn1 [Example 30, (2R,3R,5R)-1-{(2E)-3-[5-chloro-2-(1H-tetrazol-1-yl)phenyl]prop-2-enoyl}-3-(4-fluorophenyl)-N-1H-indazol-5-yl-5-piperazin-1-ylpiperidine-2-carboxamide]
40.9 nM	O=C(Nc1ccc2[nH]ncc2c1)[C@@H]1[C@H](c2ccc(F)cc2)C[C@H](N2CCNCC2)CN1C(=O)/C=C/c1cc(Cl)ccc1-n1cnnn1 [Example 31, (2S,3S,5S)-1-{(2E)-3-[5-chloro-2-(1H-tetrazol-1-yl)phenyl]prop-2-enoyl}-3-(4-fluorophenyl)-N-1H-indazol-5-yl-5-piperazin-1-ylpiperidine-2-carboxamide]
72.2 nM	CC(=O)N1CCN([C@H]2C[C@@H](c3ccc(F)cc3)[C@@H](C(=O)Nc3ccc4[nH]ncc4c3)N(C(=O)/C=C/c3cc(Cl)ccc3-n3cnnn3)C2)CC1 [Example 32, (2S,3S,5S)-5-(4-acetylpiperazin-1-yl)-1-{(2E)-3-[5-chloro-2-(1H-tetrazol-1-yl)phenyl]prop-2-enoyl}-3-(4-fluorophenyl)-N-1H-indazol-5-ylpiperidine-2-carboxamide]
